Results reported in the supplement of paper PMC10331698.
± gives the standard deviation of the averaged measurements.

Experiments:
Assay in all cases: level (log10 ratio to DMSO vehicle control); higher = higher biomarker level / cell amount than vehicle control
Conditions in all cases: in DMSO
1H,1H-Heptafluorobutanol = compound: OCC(F)(F)C(F)(F)C(F)(F)F [1H,1H-Heptafluorobutanol]
Protocol: (§1)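 BioMAP Diversity Plus panel of 12 human primary cell co-culture systems (3C, 4H, LPS, SAg, BT, BF4T, BE3C, CASM3C, HDF3CGF, KF3CT, MyoF, Mphg). Compounds were added 1 h before stimulation and left for 24 h (MyoF 48 h; BT 72 h for soluble read-outs or 6 d for IgG). Biomarkers were read by ELISA, cytotoxicity by SRB, PBMC viability and proliferation by Alamar Blue. Each well value was divided by the mean of 8 DMSO control wells on the same plate and log10 transformed; duplicate blinded samples were tested at 4 concentrations.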

Perfluorooctanamide = compound: NC(=O)C(F)(F)C(F)(F)C(F)(F)C(F)(F)C(F)(F)C(F)(F)C(F)(F)F [Perfluorooctanamide]
Protocol: as §1

[1] = compound: CC(C)(C)C(=O)CC(=O)C(F)(F)C(F)(F)C(F)(F)F [(Heptafluorobutanoyl)pivaloylmethane]
Protocol: as §1

Hexafluoroglutaric acid = compound: O=C(O)C(F)(F)C(F)(F)C(F)(F)C(=O)O [Hexafluoroglutaric acid]
Protocol: as §1

[2] = compound: C=CC(=O)OCCC(F)(F)C(F)(F)C(F)(F)C(F)(F)F [2-(Perfluorobutyl)ethyl acrylate]
Protocol: as §1

[3] = compound: O=C(O)C(F)(F)C(F)(F)C(F)(F)C(F)(F)C(F)(F)C(F)(F)C(F)(F)C(F)(F)Cl [9-Chloro-perfluorononanoic acid]
Protocol: as §1

[4] = compound: O=C(O)CCC(F)(F)C(F)(F)C(F)(F)C(F)(F)C(F)(F)F [2H,2H,3H,3H-Perfluorooctanoic acid]
Protocol: as §1

Test System | level (log10) (1H,1H-Heptafluorobutanol; 6700 nM) | level (log10) (1H,1H-Heptafluorobutanol; 20000 nM) | level (log10) (1H,1H-Heptafluorobutanol; 60000 nM) | level (log10) (Perfluorooctanamide; 6700 nM) | level (log10) (Perfluorooctanamide; 20000 nM) | level (log10) (Perfluorooctanamide; 60000 nM) | level (log10) ([1]; 6700 nM) | level (log10) ([1]; 20000 nM) | level (log10) ([1]; 60000 nM) | level (log10) (Hexafluoroglutaric acid; 6700 nM) | level (log10) (Hexafluoroglutaric acid; 20000 nM) | level (log10) (Hexafluoroglutaric acid; 60000 nM) | level (log10) ([2]; 6700 nM) | level (log10) ([2]; 20000 nM) | level (log10) ([2]; 60000 nM) | level (log10) ([3]; 6700 nM) | level (log10) ([3]; 20000 nM) | level (log10) ([4]; 6700 nM) | level (log10) ([4]; 20000 nM) | level (log10) ([4]; 60000 nM)
lMphg:IL-1alpha | 0.0275 ± 0.04 | 0.008 ± 0.018 | 0.015 ± 0.0014 | 0.01 ± 0.034 | 0.0265 ± 0.054 | 0.04 ± 0.058 | 0.0265 ± 0.042 | 0.0005 ± 0.0021 | 0.0175 ± 0.013 | -0.004 ± 0.0057 | -0.0095 ± 0.023 | -0.022 ± 0.031 | -0.026 ± 0.028 | -0.033 ± 0.0028 | 0.0145 ± 0.04 | 0.014 ± 0.027 | 0.0635 ± 0.046 | 0.03 ± 0.028 | 0.0675 ± 0.071 | 0.129 ± 0.067
3C:CCL2/MCP-1 | -0.001 | -0.0055 ± 0.012 | 0.007 ± 0.028 | 0.0085 ± 0.028 | -0.01 ± 0.0014 | 0.0105 ± 0.054 | -0.0035 ± 0.0021 | -0.007 ± 0.018 | 0.0015 ± 0.043 | -0.0005 ± 0.0035 | 0.0095 ± 0.0035 | 0.028 ± 0.018 | -0.0105 ± 0.021 | -0.0305 ± 0.0035 | -0.0245 ± 0.029 | 0.015 ± 0.054 | -0.0065 ± 0.037 | 0.0045 ± 0.015 | 0.006 ± 0.034 | 0.01 ± 0.016
BE3C:Keratin 8/18 | -0.023 ± 0.041 | 0.0035 ± 0.019 | -0.009 ± 0.037 | -0.001 ± 0.0085 | -0.009 ± 0.0028 | -0.0105 ± 0.0078 | 0.009 ± 0.0014 | 0.009 ± 0.0057 | 0.001 ± 0.025 | -0.006 ± 0.0085 | -0.018 ± 0.0014 | -0.003 ± 0.0042 | -0.0135 ± 0.025 | 0 ± 0.016 | 0.006 ± 0.013 | -0.0025 ± 0.015 | 0.0095 ± 0.0092 | 0.0065 ± 0.0021 | -0.015 ± 0.011 | -0.004 ± 0.0057
KF3CT:uPA | 0.0095 ± 0.0021 | 0.0015 ± 0.0078 | 0.0065 ± 0.00071 | -0.012 ± 0.037 | 0.0035 ± 0.015 | -0.0155 ± 0.012 | 0.0025 ± 0.016 | -0.0055 ± 0.012 | -0.003 ± 0.027 | -0.019 ± 0.024 | -0.0055 ± 0.0035 | -0.011 ± 0.011 | -0.012 ± 0.0099 | 0.0155 ± 0.00071 | -0.0225 ± 0.00071 | 0.0095 ± 0.0078 | 0.01 | -0.008 ± 0.013 | -0.0095 ± 0.033 | -0.004 ± 0.041
CASM3C:Proliferation | -0.005 ± 0.014 | 0.0045 ± 0.025 | 0.024 ± 0.055 | -0.0135 ± 0.005 | -0.036 ± 0.027 | -0.0415 ± 0.015 | -0.032 ± 0.03 | 0.0195 ± 0.0092 | -0.017 ± 0.037 | -0.015 ± 0.083 | -0.029 ± 0.0071 | 0.004 ± 0.0071 | -0.0375 ± 0.06 | -0.0315 ± 0.069 | -0.123 ± 0.084 | -0.016 ± 0.02 | 0.004 ± 0.025 | -0.014 ± 0.045 | 0.002 ± 0.0014 | 0.011 ± 0.04
CASM3C:CD142/Tissue Factor | 0.0005 ± 0.0078 | -0.0225 ± 0.013 | -0.015 ± 0.0057 | -0.0085 ± 0.046 | -0.0095 ± 0.0064 | -0.003 ± 0.051 | -0.017 ± 0.0057 | -0.0275 ± 0.0035 | -0.037 ± 0.027 | 0.003 ± 0.033 | 0.0015 ± 0.005 | 0.0185 ± 0.021 | -0.027 ± 0.011 | -0.0455 ± 0.0092 | -0.0585 ± 0.0092 | -0.017 ± 0.011 | 0.0055 ± 0.0064 | -0.0115 ± 0.022 | -0.0505 ± 0.0092 | -0.0095 ± 0.022
KF3CT:CXCL10/IP-10 | 0.004 ± 0.0042 | -0.0025 ± 0.016 | 0.012 ± 0.0071 | 0.0285 ± 0.036 | 0.0365 ± 0.037 | 0.0365 ± 0.016 | 0.004 ± 0.0099 | -0.006 ± 0.0028 | 0.007 ± 0.0014 | -0.001 | -0.01 ± 0.0014 | 0.005 ± 0.0014 | -0.009 ± 0.0057 | -0.0125 ± 0.022 | -0.0285 ± 0.0078 | -0.0235 ± 0.0035 | -0.0715 ± 0.0092 | -0.0045 ± 0.0021 | -0.0125 ± 0.0078 | -0.0185 ± 0.011
